According to article PMC7377239, “Cardiovascular Effects of Polychlorinated Biphenyls and Their Major Metabolites” (Environmental Health Perspectives, 2020):
Read-outs that look alike come from different tables or passages of the source.

Tests used:
[1] = tested on: iCell endothelial cells (human iPSC-derived ECs); assay: High-content imaging cytotoxicity in iCell endothelial cells, 24 h; type: cell-based; conditions: Homo sapiens, Endothelial cell, 24 hr; for viability at 0.1 µM / activity at 0.1 µM: 0.10 µM
Summary of the method: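 Readouts were vehicle-normalised and fitted to a four-parameter logistic model. POD was set at one SD beyond 0.5% DMSO control means, and 100 µM was assigned when no response was seen. Cells were monolayers of iCell endothelial cells imaged after 24 h compound exposure using nuclear, mitochondrial and calcein dyes.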

HUVECs = assay: Tube formation (tubulogenesis) assay in HUVECs, 18 h; type: cell-based, human; conditions: Homo sapiens, HUVEC, 18 h; for activity at 0.1 µM: 0.10 µM
Summary of the method: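 HUVECs (passage 1–5) seeded on reduced-growth-factor basement membrane and exposed to compounds overnight at 37°C, 5% CO2, in 2× maintenance medium with 12.5 ng/mL VEGF; 0.5% DMSO vehicle. Calcein AM-stained tube networks imaged and analysed; vehicle-normalized readouts fit to four-parameter logistic, POD set at one SD of vehicle means.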

[2] = iPSC-EC, 0.00 µM control = 100.00, read-out: endo.cyto.24hr
[3] = iPSC-EC, 0.00 µM control = 100.00, read-out: endo.mito.24hr
[4] = iPSC-EC, 0.00 µM control = 100.00, read-out: endo.mitoint.24hr
[5] = iPSC-EC, 0.00 µM control = 100.00, read-out: endo.nma.24hr
[6] = iPSC-EC, 0.00 µM control = 100.00, read-out: endo.tc.24hrs
[7] = HUVECs, 0.00 µM = 100.00, read-out: huvec.mtl.18hr
[8] = HUVECs, 0.00 µM = 100.00, read-out: huvec.tlps.18hr
[9] = HUVECs, 0.00 µM = 100.00, read-out: huvec.tta.18hr
[10] = HUVECs, 0.00 µM = 100.00, read-out: huvec.ttl.18hr

In the case of `COc1ccc(-c2cccc(Cl)c2)cc1Cl` [4-OMe PCB11], the viability at 0.01 µM [1, 2] is reported as 88.3%, the activity at 0.01 µM [1, 3] is reported as 88.6% and the activity at 0.01 µM [1, 4] is reported as 94.9%. It also gave an activity at 0.01 µM [1, 5] of 107%, a viability at 0.01 µM [1, 6] of 88.3% and a viability at 0.1 µM [1, 2] of 101%. The activity at 0.1 µM [1, 3] was 100%, the activity at 0.1 µM [1, 4] was 87% and the activity at 0.1 µM [1, 5] was 104%. It also gave a viability at 0.1 µM [1, 6] of 101%, a viability at 1 µM [1, 2] of 99.8% and an activity at 1 µM [1, 3] of 99.2%. The activity at 1 µM [1, 4] was 87.7%, the activity at 1 µM [1, 5] was 100% and the viability at 1 µM [1, 6] was 99.8%. For the same compound, the viability at 10 µM [1, 2] was 100%, the activity at 10 µM [1, 3] was 100% and the activity at 10 µM [1, 4] was 97.5%. It also gave an activity at 10 µM [1, 5] of 101%, a viability at 10 µM [1, 6] of 100% and a viability at 100 µM [1, 2] of 97.3%. It also gave an activity at 100 µM [1, 3] of 98%, an activity at 100 µM [1, 4] of 98.6% and an activity at 100 µM [1, 5] of 102%. The viability at 100 µM [1, 6] was 97.3%, the minimal effective concentration ([1]; iPSC-EC, top concentration 100.00 µM, read-out: endo.cyto.24hr POD) was 100 µM and the minimal effective concentration ([1]; iPSC-EC, top concentration 100.00 µM, read-out: endo.mito.24hr POD) was 100 µM. It also gave a minimal effective concentration ([1]; iPSC-EC, top concentration 100.00 µM, read-out: endo.mitoint.24hr POD) of 100 µM, a minimal effective concentration ([1]; iPSC-EC, top concentration 100.00 µM, read-out: endo.nma.24hr POD) of 100 µM and a minimal effective concentration ([1]; iPSC-EC, top concentration 100.00 µM, read-out: endo.tc.24hrs POD) of 100 µM. For the same compound, the activity at 0.01 µM (HUVECs; [7]) was 124%, the activity at 0.01 µM (HUVECs; [8]) was 137% and the activity at 0.01 µM (HUVECs; [9]) was 110%. It also gave an activity at 0.01 µM (HUVECs; [10]) of 93.8%, an activity at 0.1 µM (HUVECs; [7]) of 107% and an activity at 0.1 µM (HUVECs; [8]) of 117%. For the same compound, the activity at 0.1 µM (HUVECs; [9]) was 99.7%, the activity at 0.1 µM (HUVECs; [10]) was 89.8% and the activity at 1 µM (HUVECs; [7]) was 102%. It also gave an activity at 1 µM (HUVECs; [8]) of 99.7%, an activity at 1 µM (HUVECs; [9]) of 108% and an activity at 1 µM (HUVECs; [10]) of 99.4%. For the same compound, the activity at 10 µM (HUVECs; [7]) was 89.2%, the activity at 10 µM (HUVECs; [8]) was 97.9% and the activity at 10 µM (HUVECs; [9]) was 78.8%. For the same compound, the activity at 10 µM (HUVECs; [10]) was 67.3%, the activity at 100 µM (HUVECs; [7]) was 71% and the activity at 100 µM (HUVECs; [8]) was 60.6%. The activity at 100 µM (HUVECs; [9]) was 70.4%, the activity at 100 µM (HUVECs; [10]) was 60.2% and the minimal effective concentration (HUVECs; HUVECs, top concentration 100.00 µM, read-out: huvec.mtl.18hr POD) was 9.33 µM. The minimal effective concentration (HUVECs; HUVECs, top concentration 100.00 µM, read-out: huvec.tlps.18hr POD) was 25.8 µM, the minimal effective concentration (HUVECs; HUVECs, top concentration 100.00 µM, read-out: huvec.tta.18hr POD) was 100 µM and the minimal effective concentration (HUVECs; HUVECs, top concentration 100.00 µM, read-out: huvec.ttl.18hr POD) was 1.22 µM.

Compound `Clc1ccc(Cl)c(-c2cc(Cl)ccc2Cl)c1` [PCB 52, 2,2′,5,5′-tetrachlorobiphenyl] has a minimal effective concentration ([1]; endothelial cells (endo), cyto, read-out: POD endo.cyto.24hr) of 100 µM, a minimal effective concentration ([1]; endothelial cells (endo), mito, read-out: POD endo.mito.24hr) of 100 µM and a minimal effective concentration ([1]; endothelial cells (endo), mitoint, read-out: POD endo.mitoint.24hr) of 100 µM. For the same compound, the minimal effective concentration ([1]; endothelial cells (endo), nma, read-out: POD endo.nma.24hr) was 100 µM, the minimal effective concentration ([1]; endothelial cells (endo), tc, read-out: POD endo.tc.24hr) was 100 µM and the minimal effective concentration (HUVECs; tube formation mtl, read-out: POD huvec.mtl.18hr) was 100 µM. The minimal effective concentration (HUVECs; tube formation tlps, read-out: POD huvec.tlps.18hr) was 100 µM, the minimal effective concentration (HUVECs; tube formation tta, read-out: POD huvec.tta.18hr) was 100 µM and the minimal effective concentration (HUVECs; tube formation ttl, read-out: POD huvec.ttl.18hr) was 100 µM.
